# Experimental data from patent publication US8097585B2, “Methods of treating inflammation by administration of heme oxygenase-1 and products of heme degradation” (priority 2002, dated 2012).
# Counter-ions that a name gives are not always drawn.
# How the values were obtained:
# [1] = test system: DSS-colitis; test: DSS-colitis (acute colitis) mouse model: weight loss, DAI, symptoms, crypt score; type: in vivo, C57BL/6 mice; details: for mean time to development of loose stool / mean time to bleeding: Kaplan-Meier; for mean time to development of loose stool: non-treated 3 days; for mean time to bleeding: non-treated 5.1 days; for colon histology (cryptal structure): day 7, light microscopy; for crypt score: day 7, non-treatment group 4.8; for disease activity index (DAI): i.p. daily (CoPPIX 5 mg/kg; biliverdin 50 μmol/kg)
# From the text: Animals. Pathogen-free male C57BL/6 mice, 4-6 weeks of age (Taconic; C57BL/6×129 svj strain) were used in this example. Mice were kept for one week at 4 mice/cage and fed normal laboratory chow and drinking water ad libitum prior to the experiments. All mice weighed between 22.5 g and 27.7 g at the beginning of the trial. The animal experimentation protocol was reviewed and approved by the Animal Care and Use Committees of the Beth Israel Deaconess Medical Center.
# Induction of Colitis. Colitis was induced by feeding mice 5% (wt/v) dextran sodium sulfate (DSS) (MW 40,000; ICN Biomedicals Inc., OH), dissolved in distilled water, for a period of 7 days. The resulting condition was termed “DSS-colitis.” Control animals were fed distilled water ad libitum. The mortality rate in the control group and the CO-treated group was 10% (2/20) and 14% (2/14), respectively. These animals were excluded from the statistical analysis. In the other groups, no mortality occurred during 7 days of 5% DSS treatment.
# Experimental Reagents and Treatment Protocol. Cobalt protoporphyrin (CoPPIX), zinc protoporphyrin (ZnPPIX, Porphyrin Products, Logan, Utah) and biliverdin dihydrochloride (ICN Biomedicals Inc., OH) were dissolved in a small amount 0.2 M NaOH, subsequently adjusted to a pH of 7.4 with 1 M HCl, and diluted in 0.9% NaCl. The stock solutions (CoPPIX and ZnPPIX=1 mg/ml, biliverdin=10 mM) were aliquoted and kept at −70° C. until used. Light exposure was limited as much as possible. CoPPIX (5 mg/kg), ZnPPIX (20 mg/kg) and biliverdin (50 μmol/kg) were administered to the mice intraperitoneally (i.p.) 24 hours before induction of DSS-colitis and daily thereafter. Desferoxamine (DFO) was prepared in imidazole buffer (50 mM imidazole, 220 mM NaCl, pH 7.4). DFO was injected subcutaneously (s.c.) twice daily (125 mg/kg) or infused i.p. (130 mg/kg/day; pumping rate 0.5 μl/hour for 8 days) by miniosmotic Alzet™ pumps (Alza Corporation, Palo Alto, Calif.) (Postma et al., Exp. Parasitol. 89(3):323-30 1998). The pumps were installed i.p. 24 hours before induction of colitis. When animals were sacrificed at day 7 of DSS treatment, the pumps were removed and evaluated to determine if DFO application had taken place.
# CO gas was administrated exogenously by putting animals in a CO exposure chamber (Otterbein et al., Nat. Med. 6(4):422-8, 2000). Briefly, CO at a concentration of 1% (10,000 parts per million (ppm)) in compressed air was mixed with balanced air (21% oxygen) in a stainless steel mixing cylinder before entering the exposure chamber. CO concentrations were controlled by varying the flow rates of CO in a mixing cylinder before delivery to the chamber. Because the flow rate is primarily determined by the O2 flow, only the CO flow was changed to deliver the final concentration to the exposure chamber. A CO analyzer (Interscan Corporation, Chatsworth, Calif.) was used to measure CO levels continuously in the chamber. Mice were placed in the chamber 24 hours before the induction of the colitis and were kept in the exposure chamber during the whole period of the experiment (total of 8 days). […] Animals were removed daily from the chamber to assess weight and stool.
# Evaluation of Symptoms of Colitis. All animals were evaluated clinically on a daily basis. The evaluation of each animal included a measurement of weight, hemoccult positivity and examination of stool for the presence of gross blood and stool consistency. The disease activity index (DAI) was calculated by scoring percent weight loss, intestinal bleeding (no blood; occult blood=hemoccult+; gross blood) and stool consistency (normal stool=well-formed pellets; loose stool=pasty and semiformed stools; diarrhea=liquid stool that stuck to the anus) (Table 1).
# The animals were sacrificed, and the whole colon from the colo-cecal junction to the anal verge was removed and gently cleaned of stool. […]
# [2] = test system: DBA/2 islets in diabetic B6AF1 recipients; test: Allogeneic islet transplantation, graft survival and tolerance test; type: in vivo, mice
# Description: Animals. Male DBA/2, B6AF1 and DBA/1 mice 6-8 week of age (Jackson) are used in the experiments. Mice were kept for 2 weeks at 4 mice/cage and fed normal laboratory chow before using for the experiment.
# Treatment protocol. Recipients were rendered diabetic using streptozotocin (STZ, 225 mg/kg). Five days after STZ administration, animals with two consecutive blood glucose levels exceeding 350 mg/dl are used as recipients. Islets (500) are transplanted under the kidney capsule of the recipients.
# Reagents. Cobalt protoporphyrin (CoPPIX, Porphyrin Products, Logan, Utah), biliverdin dihydrochloride and bilirubin (ICN Biomedicals Inc., OH) were dissolved in a small amount of 0.2 M NaOH, subsequently adjusted to a pH of 7.4 with 1 M HCl, and diluted in 1×PBS. The stock solutions (CoPPIX=2 mg/ml, biliverdin=3.2 mg/ml, bilirubin=0.5 mg/ml) were aliquoted and kept at −70° C. until used. Light exposure was limited as much as possible.
# Induction of HO-1/Administration of biliverdin/bilirubin. When given to the donor, CoPPIX (20 mg/kg) was given 24 hours before islet isolation to induce HO-1 expression. To verify HO-1 expression in different organs after CoPP treatment, tissue samples are collected 24 hours after treatment and snap frozen in liquid nitrogen. Immunohistological analysis of HO-1 expression is performed using an anti-HO-1 antibody. CoPPIX (20 mg/kg) was administrated to the recipient intraperitoneally (i.p.) on day-1, 1, 3, 5 and 7. Biliverdin (50 μmol/kg) or bilirubin (8.5 μmol/kg) was given intraperitoneally to the donor one hour before islet isolation. For the recipient, biliverdin (50 μmol/kg) or bilirubin ([…]) was administered intraperitoneally either daily or twice per day from day-1 until day 13. No further treatment was given afterwards.
# Measurement of Glucose level. Glucose levels were tested twice weekly after transplantation. Glucose levels of <200 mg/dl were considered normoglycemic. Grafts were considered rejected when two consecutive glucose levels were >300 mg/dl.
# Tolerance test. The first graft was removed from a number of animals that had islets surviving long-term (longer than 100 days) by doing a nephrectomy. Islets syngeneic with the original donor were transplanted under the contralateral kidney capsule without further treatment. If those second transplanted islets also survived longer than 100 days without further treatment, the recipients were considered tolerant.
Structure (SMILES),mean time to development of loose stool [1],mean time to bleeding [1],difference in DAI between CoPP-treated and untreated groups ([1]; day 2),difference in DAI between CoPP-treated and untreated groups ([1]; day 5 (maximum protection)),colon histology (cryptal structure) [1],crypt score [1],disease activity index (DAI) ([1]; day 7 of DSS),difference in DAI between CoPP-treated and untreated groups ([1]; toward the end of the 7 days),"islet allograft survival ([2]; CoPP 20 mg/kg, donor one day before, recipient days −1, 1, 3, 5 and 7)","islet allograft survival ([2]; CoPP, HO-1 induced only in the donor)","acceptance of 2nd graft (DBA/2 islets) in tolerance test ([2]; all five animals, no further treatment)",third party grafts in tolerance test ([2]; n=3),"mean total percent body weight loss ([1]; day 7 of DSS, i.p. daily from 24 hours before DSS (CoPPIX 5 mg/kg; biliverdin 50 μmol/kg))",antigen specific tolerance ([2]; long-term survival animals),long-term surviving islets ([2]; treatment of the recipient only)
"C=CC1=C(C)c2cc3[n-]c(cc4nc(cc5[n-]c(cc1n2)c(C)c5CCC(=O)[O-])C(CCC(=O)[O-])=C4C)c(C)c3C=C.[Co+2].[H+].[H+] [CoPP, Cobalt protoporphyrin]",4.6 days,6.9 days,0.4,1.64,remaining cryptal structures and intact epithelial surface,2.6,2.8,1.04,prolongation of survival in general but also to some islets surviving long-term,prolonged survival and function of the islets in the recipient but also to an occasional long-term surviving graft,> 100 days,rejected rapidly,,,
"C=CC1=C(C)/C(=C/C2=NC(=C\c3[nH]c(/C=C4\NC(=O)C(C)=C4C=C)c(C)c3CCC(=O)O)/C(CCC(=O)O)=C2C)NC1=O [biliverdin, biliverdin dihydrochloride]",4.4 days,6.2 days,,,preserved cryptal structure,3,3.3,,,,,,16.5%,seen in some,significant percentage of long-term surviving islets
